{"source": "paper PMC12203311", "about": "“Design, synthesis, in silico and in vitro evaluation of pyrrole–indole hybrids as dual tubulin and aromatase inhibitors with potent anticancer activities” (RSC Advances, 2025)", "assay_in_all_cases": "NCI60 five-dose screen", "key": {"NCI/ADR-RES": {"tested_on": "NCI/ADR-RES", "assay_type": "cell-based, human", "conditions": "Homo sapiens, ovarian cancer"}, "MDA-MB-468": {"tested_on": "MDA-MB-468", "assay_type": "cell-based", "conditions": "Homo sapiens, MDA-MB-468, breast cancer"}, "SF-539": {"tested_on": "SF-539", "assay_type": "cell-based", "conditions": "Homo sapiens, SF-539, CNS cancer"}, "ACHN": {"tested_on": "ACHN", "assay_type": "cell-based", "conditions": "Homo sapiens, renal cancer"}, "IGROV1": {"tested_on": "IGROV1", "assay_type": "cell-based", "conditions": "Homo sapiens, IGROV-1; IGROV1, ovarian cancer"}, "SF-295": {"tested_on": "SF-295", "assay_type": "cell-based", "conditions": "Homo sapiens, SF-295, CNS cancer"}, "SK-MEL-5": {"tested_on": "SK-MEL-5", "assay_type": "cell-based, human", "conditions": "Homo sapiens"}, "SF-268": {"tested_on": "SF-268", "assay_type": "cell-based", "conditions": "Homo sapiens, SF-268, CNS cancer"}, "SNB-75": {"tested_on": "SNB-75", "assay_type": "cell-based", "conditions": "Homo sapiens, SNB-75, CNS cancer"}, "A549/ATCC": {"tested_on": "A549/ATCC", "assay_type": "cell-based", "conditions": "Homo sapiens, NSC lung cancer"}, "SNB-19": {"tested_on": "SNB-19", "assay_type": "cell-based", "conditions": "Homo sapiens, SNB-19, CNS cancer"}, "HCT-15": {"tested_on": "HCT-15", "assay_type": "cell-based", "conditions": "Homo sapiens, HCT-15, colon cancer"}, "T-47D": {"tested_on": "T-47D", "assay_type": "cell-based", "conditions": "Homo sapiens, T47D, breast cancer"}, "LOX IMVI": {"tested_on": "LOX IMVI", "assay_type": "cell-based", "conditions": "Homo sapiens, melanoma"}, "RPMI-8226": {"tested_on": "RPMI-8226", "assay_type": "cell-based", "conditions": "Homo sapiens, RPMI-8226, leukemia"}, "SK-MEL-2": {"tested_on": "SK-MEL-2", "assay_type": "cell-based", "conditions": "Homo sapiens, SK-MEL-2, melanoma"}, "UACC-62": {"tested_on": "UACC-62", "assay_type": "cell-based", "conditions": "Homo sapiens, UACC-62, melanoma"}, "MCF7": {"tested_on": "MCF7", "assay_type": "cell-based", "conditions": "Homo sapiens, MCF7, breast cancer"}, "EKVX": {"tested_on": "EKVX", "assay_type": "cell-based", "conditions": "Homo sapiens, NSC lung cancer"}, "OVCAR-3": {"tested_on": "OVCAR-3", "assay_type": "cell-based", "conditions": "Homo sapiens, OVCAR-3, ovarian cancer"}, "BT-549": {"tested_on": "BT-549", "assay_type": "cell-based", "conditions": "Homo sapiens, BT-549, breast cancer"}, "SN12C": {"tested_on": "SN12C", "assay_type": "cell-based", "conditions": "Homo sapiens, renal cancer"}, "NCI-H226": {"tested_on": "NCI-H226", "assay_type": "cell-based", "conditions": "Homo sapiens, NCI-H226, NSC lung cancer"}, "HCC-2998": {"tested_on": "HCC-2998", "assay_type": "cell-based", "conditions": "Homo sapiens, HCC-2998, colon cancer"}, "UO-31": {"tested_on": "UO-31", "assay_type": "cell-based", "conditions": "Homo sapiens, UO-31, renal cancer"}, "SK-OV-3": {"tested_on": "SK-OV-3", "assay_type": "cell-based", "conditions": "Homo sapiens, SK-OV-3, ovarian cancer"}, "HCT-116": {"tested_on": "HCT-116", "assay_type": "cell-based", "conditions": "Homo sapiens, HCT-116, colon cancer"}, "OVCAR-8": {"tested_on": "OVCAR-8", "assay_type": "cell-based", "conditions": "Homo sapiens, OVCAR-8, ovarian cancer"}, "MOLT-4": {"tested_on": "MOLT-4", "assay_type": "cell-based", "conditions": "Homo sapiens, MOLT-4, leukemia"}, "PC-3": {"tested_on": "PC-3", "assay_type": "cell-based", "conditions": "Homo sapiens, PC-3, prostate cancer"}, "K-562": {"tested_on": "K-562", "assay_type": "cell-based", "conditions": "Homo sapiens, K562, K-562, leukemia"}, "MDA-MB-231/ATCC": {"tested_on": "MDA-MB-231/ATCC", "assay_type": "cell-based", "conditions": "Homo sapiens, breast cancer"}, "HT29": {"tested_on": "HT29", "assay_type": "cell-based", "conditions": "Homo sapiens, HT-29, HT29, colon cancer"}, "[1]": {"conditions": "read-out: LC50 (the source's name)"}}}
{"smiles": "O=C(N/N=C/c1cc(Br)c(Br)[nH]1)c1[nH]c2ccc(Br)cc2c1-c1ccccc1", "note": "[Derivative 3f, (E)-5-Bromo-N′-((4,5-dibromo-1H-pyrrol-2-yl)methylene)-3-phenyl-1H-indole-2-carbohydrazide]", "values": [{"measurement": "GI50", "setting": "NCI/ADR-RES", "value": 1.14, "unit": "µM"}, {"measurement": "CC50", "setting": "NCI/ADR-RES; [1]", "value": 9.73, "unit": "µM"}, {"measurement": "GI50", "setting": "MDA-MB-468", "value": 2.09, "unit": "µM"}, {"measurement": "CC50", "setting": "MDA-MB-468; [1]", "value": 22.8, "unit": "µM"}, {"measurement": "GI50", "setting": "SF-539", "value": 1.78, "unit": "µM"}, {"measurement": "CC50", "setting": "SF-539; [1]", "value": 15.7, "unit": "µM"}, {"measurement": "GI50", "setting": "ACHN", "value": 2.59, "unit": "µM"}, {"measurement": "CC50", "setting": "ACHN; [1]", "value": 35.5, "unit": "µM"}, {"measurement": "GI50", "setting": "IGROV1", "value": 0.53, "unit": "µM"}, {"measurement": "GI50", "setting": "SF-295", "value": 2.2, "unit": "µM"}, {"measurement": "CC50", "setting": "SF-295; [1]", "value": 26.9, "unit": "µM"}, {"measurement": "CC50", "setting": "SK-MEL-5; SK-MEL-5, SK-MEL-5, melanoma, read-out: LC50 (the source's name)", "value": 8.65, "unit": "µM"}, {"measurement": "GI50", "setting": "SK-MEL-5; SK-MEL-5, melanoma", "value": 1.72, "unit": "µM"}, {"measurement": "GI50", "setting": "SF-268", "value": 2.57, "unit": "µM"}, {"measurement": "CC50", "setting": "SF-268; [1]", "value": 65.3, "unit": "µM"}, {"measurement": "GI50", "setting": "SNB-75", "value": 1.08, "unit": "µM"}, {"measurement": "CC50", "setting": "SNB-75; [1]", "value": 64.4, "unit": "µM"}, {"measurement": "GI50", "setting": "A549/ATCC", "value": 3.11, "unit": "µM"}, {"measurement": "CC50", "setting": "A549/ATCC; [1]", "value": 37.6, "unit": "µM"}, {"measurement": "GI50", "setting": "SNB-19", "value": 3.47, "unit": "µM"}, {"measurement": "CC50", "setting": "SNB-19; [1]", "value": 39.3, "unit": "µM"}, {"measurement": "GI50", "setting": "HCT-15", "value": 2.7, "unit": "µM"}, {"measurement": "CC50", "setting": "HCT-15; [1]", "value": 33.1, "unit": "µM"}, {"measurement": "GI50", "setting": "T-47D", "value": 3.84, "unit": "µM"}, {"measurement": "CC50", "setting": "T-47D; [1]", "value": 74.3, "unit": "µM"}, {"measurement": "GI50", "setting": "LOX IMVI", "value": 2.31, "unit": "µM"}, {"measurement": "CC50", "setting": "LOX IMVI; [1]", "value": 31.8, "unit": "µM"}, {"measurement": "GI50", "setting": "RPMI-8226", "value": 2.27, "unit": "µM"}, {"measurement": "CC50", "setting": "RPMI-8226; [1]", "value": "> 100", "unit": "µM"}, {"measurement": "GI50", "setting": "SK-MEL-2", "value": 2.68, "unit": "µM"}, {"measurement": "CC50", "setting": "SK-MEL-2; [1]", "value": 36.3, "unit": "µM"}, {"measurement": "GI50", "setting": "UACC-62", "value": 1.2, "unit": "µM"}, {"measurement": "CC50", "setting": "UACC-62; [1]", "value": 38, "unit": "µM"}, {"measurement": "GI50", "setting": "MCF7", "value": 1.99, "unit": "µM"}, {"measurement": "CC50", "setting": "MCF7; [1]", "value": 33.7, "unit": "µM"}, {"measurement": "GI50", "setting": "EKVX", "value": 3.45, "unit": "µM"}, {"measurement": "CC50", "setting": "EKVX; [1]", "value": 44.8, "unit": "µM"}, {"measurement": "GI50", "setting": "OVCAR-3", "value": 2.3, "unit": "µM"}, {"measurement": "CC50", "setting": "OVCAR-3; [1]", "value": 24.5, "unit": "µM"}, {"measurement": "GI50", "setting": "BT-549", "value": 3.69, "unit": "µM"}, {"measurement": "CC50", "setting": "BT-549; [1]", "value": 90.8, "unit": "µM"}, {"measurement": "GI50", "setting": "SN12C", "value": 2.15, "unit": "µM"}, {"measurement": "CC50", "setting": "SN12C; [1]", "value": 30.7, "unit": "µM"}, {"measurement": "GI50", "setting": "NCI-H226", "value": 2.28, "unit": "µM"}, {"measurement": "CC50", "setting": "NCI-H226; [1]", "value": 32.5, "unit": "µM"}, {"measurement": "GI50", "setting": "HCC-2998", "value": 2.3, "unit": "µM"}, {"measurement": "CC50", "setting": "HCC-2998; [1]", "value": 24, "unit": "µM"}, {"measurement": "GI50", "setting": "UO-31", "value": 1.94, "unit": "µM"}, {"measurement": "CC50", "setting": "UO-31; [1]", "value": 38.5, "unit": "µM"}, {"measurement": "GI50", "setting": "SK-OV-3", "value": 4.76, "unit": "µM"}, {"measurement": "CC50", "setting": "SK-OV-3; [1]", "value": 72.5, "unit": "µM"}, {"measurement": "GI50", "setting": "HCT-116", "value": 3.24, "unit": "µM"}, {"measurement": "CC50", "setting": "HCT-116; [1]", "value": "> 100", "unit": "µM"}, {"measurement": "GI50", "setting": "OVCAR-8", "value": 1.98, "unit": "µM"}, {"measurement": "CC50", "setting": "OVCAR-8; [1]", "value": 17.2, "unit": "µM"}, {"measurement": "GI50", "setting": "MOLT-4", "value": 3.38, "unit": "µM"}, {"measurement": "CC50", "setting": "MOLT-4; [1]", "value": "> 100", "unit": "µM"}, {"measurement": "GI50", "setting": "PC-3", "value": 2.29, "unit": "µM"}, {"measurement": "CC50", "setting": "PC-3; [1]", "value": 63.3, "unit": "µM"}, {"measurement": "GI50", "setting": "K-562", "value": 1.93, "unit": "µM"}, {"measurement": "CC50", "setting": "K-562; [1]", "value": 76.4, "unit": "µM"}, {"measurement": "GI50", "setting": "MDA-MB-231/ATCC", "value": 2.49, "unit": "µM"}, {"measurement": "CC50", "setting": "MDA-MB-231/ATCC; [1]", "value": 26.3, "unit": "µM"}, {"measurement": "GI50", "setting": "HT29", "value": 2.33, "unit": "µM"}, {"measurement": "CC50", "setting": "HT29; [1]", "value": 20.8, "unit": "µM"}]}
